In patent US4727090A, “Process for preparing and therapeutical applications of the 2,4,6-triiodophenol” (Bislak, S.A., priority 1983, dated 1988):
Like-named read-outs stand apart in the source and are kept apart here.

Key:
[1] = test system: granuloma formed around cotton implant; assay: Cotton implant granuloma test; type: in vivo, rats; conditions: 72 hours
Method: (B) To a group of 10 rats of about 200-225 g is implanted at the dorsal zone, subcutaneously, balled cotton (about 9 mg) impregnated and afterwards dried with a solution of medicamentous substance and which amount is known.
We use as reference Dexamethasone and controls without medicament.
After 72 hours, once the animal is sacrificed, the granuloma formed around the implant is extracted and weighed, after drying at 100° C.
The antiinflammatory reduces the weight of the granuloma.

[2] = test system: sensation of pain on hot plate; assay: Hot plate test at 56° C; type: in vivo, mice; conditions: 500 mg/kg injection
Method: (A) To control analgesic activity we use mice of about 25 g by weight, in groups of ten mice, subjected to the test of the hot plate at 56° C.
Animals receive a medicamentous injection of 0.1 ml of solubilized aspirin with sodium bicarbonate, or of solubilized triiodophenol at pH 9'5.
Controls receive physiologic serum.
The time in which the animals indicate sensation of pain is measured with a chronometer.
In the hereunder table the results testing animals, 15 min. and 30 min. after the medication. Average values are taken of each group.

[3] = test system: Carrageenin leg oedema; assay: Carrageenin leg oedema test; type: in vivo, white rats; conditions: Rattus norvegicus; 10 mg/kg oral, 4 hours
Method: (A) The antiinflammatory action is shown in white rats, of a weight of about 200-225 g, having provoked in these animals the leg oedema by means of an injection in the sole of the foot of 0.1 ml of a 1% Carrageenin solution.
One control group of ten animals, another the same medicated with indomethacin via oral at 30 mg/kg, in suspension in a carboxymethylcellulose solution, another group of ten rats, medicated with triiodophenol in oral solution at 5 mg/kg, another group medicated with triioodophenol at 1 mg/kg, injected via intramuscular and another group medicated with triiodophenol at 0.5 mg/kg via intramuscular. All medications are administered simultaneously to the formation of Edema.
The volume of the same is measured at 0 hours, 3 hours, 4 hours, 5 hours and 6 hours with a mercury Plestimograph.

[4] = test system: Carrageenin leg oedema; assay: Carrageenin leg oedema test; type: in vivo, white rats; conditions: Rattus norvegicus, 10 mg/kg oral
[5] = test system: acetic acid induced pullings; assay: Writhing syndrome test (acetic acid); type: in vivo, mice; conditions: 500 mg/kg oral; for inhibition at 500 mg/kg: Mus musculus, po, read-out: % INHIB. (pullings)
Method: Irritant substance: acetic acid at 0.5% injected via intraperitoneal.
Foundation of the method consists in provoking a dolorous syndrome by pulling and torsion of the stomach and the hind legs of the animals.
These pullings or stretchings are calculated during a certain time, using it as the measure of the provoked ache.
Mice of about 22 g by weight were used, animals were left under abstinence during 24 hours before carrying out the test.
Mice were previously selected as to each individual response to the dolorous stimulus provoked by an intraperitoneal injection of 0.2 ml of an acetic acid aqueous solution at the 0.5%. Valid animals for realizing the test are those which respond within a margin of 15-35 pullings in about 5 to 15 minutes after the injection. The remaining animals are not useful.
Medication is realized via oral with the help of an esophageal cannula.
White lot: Administration of 0.1 ml of CMC 1% for each 10 g of corporal weight.
2,4,6-triiodophenol lot: Administration of 10 mg/kg of the product, suspended in CMC of 1%.
Aspirin-Lysin lot (Solusprin): Administration of 500 mg/kg aspirin, dissolved at 1%.
After medication, one has to wait 20 minutes for injecting 0.2 ml acetic acid of 0.5% via intraperitoneal, calculating the number of pullings during 5 minutes. […]
The test was carried out in 9 mice in each lot.

Compound: C[C@@H]1C[C@H]2[C@@H]3CCC4=CC(=O)C=C[C@]4(C)[C@@]3(F)[C@@H](O)C[C@]2(C)[C@@]1(O)C(=O)CO [Dexamethansone, reference compound]
- % Reduction of the granuloma (Average) ([1]; 10 micrograms per implant): 16%
- % Reduction of the granuloma (Average) ([1]; 20 micrograms per implant): 28%
- % Reduction of the granuloma (Average) ([1]; 40 micrograms per implant): 30%

Compound: CC(=O)Oc1ccccc1C(=O)O [Acetyl salicylic acid, reference compound]
- Time to sensation of pain ([2]; 15 minutes): 4,3 sec.
- Time to sensation of pain ([2]; 30 minutes): 6,8 sec.

Compound: COc1ccc2c(c1)c(CC(=O)O)c(C)n2C(=O)c1ccc(Cl)cc1 [Indomethacin]
- inhibition at 10 mg/kg [3]: 63%
- inhibition at 10 mg/kg ([4]; 3 hours): 59%
- inhibition at 10 mg/kg ([4]; 5 hours): 69%
- inhibition at 10 mg/kg ([4]; 6 hours): 73%

Compound: CC(=O)Oc1ccccc1C(=O)O [ASPIRIN, reference compound]
- Total No. pullings ([5]; 20'): 12
- Total No. pullings ([5]; 30'): 6
- Total No. pullings ([5]; 100'): 6
- inhibition at 500 mg/kg ([5]; 20'): 90%
- inhibition at 500 mg/kg ([5]; 30'): 89.2%
